Reference: patent US11014898B1, “Benzothiazepine compounds and their use as bile acid modulators” (Albireo AB, priority 2020, dated 2021)
pIC50: −log10 of the molar value.

Molecular target: T1, Human LBAT (Homo sapiens, UniProt Q14973)
T1 construct: expressed in transfected cells; cells kept under Geneticin selection
T1 sequence (Q14973 1-349): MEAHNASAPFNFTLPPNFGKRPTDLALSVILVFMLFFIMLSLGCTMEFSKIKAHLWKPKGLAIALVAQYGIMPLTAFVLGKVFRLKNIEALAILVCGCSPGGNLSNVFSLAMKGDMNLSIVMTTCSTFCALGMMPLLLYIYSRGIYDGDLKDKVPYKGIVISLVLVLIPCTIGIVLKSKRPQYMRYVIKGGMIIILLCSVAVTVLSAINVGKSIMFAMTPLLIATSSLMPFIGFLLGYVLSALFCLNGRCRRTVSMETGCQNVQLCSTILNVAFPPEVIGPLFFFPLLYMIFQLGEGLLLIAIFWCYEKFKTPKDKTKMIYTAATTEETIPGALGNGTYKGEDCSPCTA
Test: LBAT (h) assay: 3H-taurocholic acid uptake in human LBAT-overexpressing cells
Type: cell-based
Details: 0.3 μM 3H-taurocholic acid and 7.5 μM cold taurocholic acid, 20 minutes, read-out: hLBAT IC50
Description: 20,000 cells (Human or Mouse LBAT-overexpressing cells) were seeded in 96-wells plate (Corning CLS3809) in 100 μL MEM-alpha medium (Gibco 12571-063) supplemented with 10% FBS (Gibco 10438026) containing Geneticin (Gibco 10131-027) (1 mg/mL) and incubated at 37° C. in 5% CO2 for 24 hours. After incubation, media was decanted from the wells and cells were washed two times with 300 μL of basal MEM-alpha medium (FBS-free). After decanting basal MEM-alpha medium each time, plates were tapped against paper towel to ensure maximum removal of residual media. For human LBAT, incubation mix was prepared by adding test inhibitor dilutions (3-fold serial dilution in DMSO (Sigma D2650), 10 points) in MEM-alpha (without FBS) containing 0.3 μM 3H-taurocholic acid (ARC ART-1368) and 7.5 μM cold taurocholic acid (Sigma T4009) (maintaining 0.2% final DMSO concentration). For mouse LBAT, incubation mix was prepared by adding test inhibitor dilutions (3-fold serial dilution in DMSO, 10 points) in MEM-alpha (without FBS) containing 0.3 μM 3H-taurocholic acid and 25 μM cold taurocholic acid maintaining 0.2% final DMSO concentration).
50 μL of incubation mix containing test inhibitors was then added to the wells (in duplicate) and the plates were incubated for 20 minutes in a CO2 incubator at 37° C. After incubation, the reaction was stopped by keeping the plates on ice water mix for 2-3 minutes and then the incubation mix was aspirated completely from the wells. The wells were washed two times with 250 μL of chilled unlabelled 1 mM taurocholic acid dissolved in HEPES (Gibco 15630080)-buffered (10 mM) HBSS (Gibco 14175079) (pH 7.4). The plates were tapped against a paper towel after every wash to ensure maximum removal of blocking buffer.
100 μL of MicroScint-20 (PerkinElmer 6013621) was added to the wells and kept overnight at room temperature before reading the plates in TopCount NXT™ Microplate Scintillation and Luminescence Counter from PerkinElmer under 3H Test protocol (set at 120 seconds reading time per well, with normal plate orientation).
All test compounds were provided in powder form at room temperature. 10 mM DMSO stocks of the test compounds were prepared, aliquoted and stored at −20° C. From the 10 mM DMSO stock of the compounds, a 3-fold serial dilution in DMSO was prepared to get a total of 10 dilutions of the test compounds. 0.5 μL of this dilution in DMSO was added to 250 μL of FBS-free basal media containing 3H-taurocholic acid and cold taurocholic acid to prepare the incubation mixture.

pIC50 | SMILES
5.55 | CCCCC1(CCCC)CN(c2ccc(Br)cc2)c2cc(SC)c(OCC(=O)O)cc2S(=O)(=O)C1 [Example 3, 2-((5-(4-bromophenyl)-3,3-dibutyl-7-(methylthio)-1,1-dioxido-2,3,4,5-tetrahydro-1,5-benzothiazepin-8-yl)oxy)acetic Acid]
5.70 | CCCCC1(CCCC)CN(c2ccc(O)cc2)c2cc(SC)c(OCC(=O)O)cc2S(=O)(=O)C1 [Example 4, 2-((3,3-dibutyl-5-(4-hydroxyphenyl)-7-(methylthio)-1,1-dioxido-2,3,4,5-tetrahydro-1,5-benzothiazepin-8-yl)oxy)acetic Acid]
